≈ marks a conversion by molar mass, not a printed value. Like-named read-outs stand apart in the source and are kept apart here.
Legend:
[1] = target: T1, purified DHFR of strain Sp1/1 of Streptococcus pneumoniae (Streptococcus pneumoniae serotype 4, UniProt Q54801); format: biochemical; settings: IC50 against purified DHFR of strain Sp1/1
T1 sequence (Q54801 1-168 I100L): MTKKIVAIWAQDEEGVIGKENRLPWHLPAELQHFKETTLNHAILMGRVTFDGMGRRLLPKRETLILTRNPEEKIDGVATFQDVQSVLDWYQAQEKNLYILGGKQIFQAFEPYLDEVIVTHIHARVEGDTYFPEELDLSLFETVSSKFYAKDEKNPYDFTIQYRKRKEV

[2] = system: Streptococcus pneumoniae 1/1; assay: MIC against Streptococcus pneumoniae 1/1; format: cell-based
[3] = target: purified DHFR of strain 157/4696 of Staphylococcus aureus (Staphylococcus aureus, UniProt P13955); assay: biochemical
purified DHFR of strain 157/4696 of Staphylococcus aureus, sequence (P13955 whole entry): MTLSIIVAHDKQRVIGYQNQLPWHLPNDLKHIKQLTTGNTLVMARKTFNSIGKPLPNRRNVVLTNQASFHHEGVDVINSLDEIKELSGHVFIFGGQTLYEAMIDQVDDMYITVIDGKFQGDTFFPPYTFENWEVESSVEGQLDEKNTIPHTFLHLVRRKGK

[4] = system: Staphylococcus aureus 101; assay: MIC against Staphylococcus aureus 101; format: cell-based; settings: read-out: MIC Sa101
[5] = Table 2, Streptococcus pneumoniae 1/1, trimethoprim- and penicillin-resistant, serotype 6, clinical isolate, read-out: MIC Sp1/1
[6] = Table 2, Staphylococcus aureus 101, MRSA- and trimethoprim-resistant, clinical isolate

Row | Structure (SMILES) | IC50 ([1]; Table 2) | MIC [2, 5] | IC50 [3] | MIC [4, 6] | MIC ([2]; Streptococcus pneumoniae, 1/1, read-out: MIC Sp1/1) | MIC ([4]; Staphylococcus aureus, MRSA) | IC50 ([1]; Table 1) | MIC ([2]; Table 1, Streptococcus pneumoniae 1/1, trimethoprim- and penicillin-resistant, serotype 6, clinical isolate, read-out: MIC Sp1/1) | MIC ([4]; Table 1, Staphylococcus aureus 101, MRSA- and trimethoprim-resistant, clinical isolate)
1 | CCOc1cc(Cc2cnc(N)nc2N)cc(OCC)c1-c1ccco1 [Example 02-o, 5-(3,5-Diethoxy-4-furan-2-yl-benzyl)-pyrimidine-2,4-diamine] | 100 nM | 4 µg/mL (≈ 11.3 µM) | 2200 nM | 4 µg/mL (≈ 11.3 µM) | – | – | – | – | –
2 | CCOc1cc(Cc2cnc(N)nc2N)cc(OCC)c1-c1cccnc1 [Example 02-p, 5-(3,5-Diethoxy-4-pyridin-3-yl-benzyl)-pyrimidine-2,4-diamine] | 100 nM | 4 µg/mL (≈ 10.9 µM) | 2200 nM | 8 µg/mL (≈ 21.9 µM) | – | – | – | – | –
3 | CCOc1cc(Cc2cnc(N)nc2N)cc(OCC)c1-c1ccc(C)cc1 [Example 02-q, 5-(2,6-Diethoxy-4′-methyl-biphenyl-4-ylmethyl)-pyrimidine-2,4-diamine] | 79 nM | 8 µg/mL (≈ 21.1 µM) | 1100 nM | 4 µg/mL (≈ 10.6 µM) | – | – | – | – | –
4 | CCOc1cc(Cc2cnc(N)nc2N)cc(OCC)c1-c1ccc2c(c1)OCO2 [Example 02-r, 5-(4-Benzo[1,3]dioxol-5-yl-3,5-diethoxy-benzyl)-pyrimidine-2,4-diamine] | 70 nM | 4 µg/mL (≈ 9.79 µM) | 2500 nM | 4 µg/mL (≈ 9.79 µM) | – | – | – | – | –
5 | CCOc1cc(Cc2cnc(N)nc2N)cc(OCC)c1-c1ccc(O)c(C)c1 [Example 02-s, 4′-(2,4-Diamino-pyrimidin-5-ylmethyl)-2′,6′-diethoxy-3-methyl-biphenyl-4-ol] | 83 nM | 8 µg/mL (≈ 20.3 µM) | 2200 nM | 4 µg/mL (≈ 10.1 µM) | – | – | – | – | –
6 | CCOc1cc(Cc2cnc(N)nc2N)cc(OCC)c1-c1ccc(O)cc1 [Example 02-t, 4′-(2,4-Diamino-pyrimidin-5-ylmethyl)-2′,6′-diethoxy-biphenyl-4-ol] | 81 nM | – | 1100 nM | – | 4 µg/mL (≈ 10.5 µM) | 8 µg/mL (≈ 21 µM) | – | – | –
7 | CCOc1cc(Cc2cnc(N)nc2N)cc(OCC)c1-c1cccc(C#N)c1 [Example 02-u, 4′-(2,4-Diamino-pyrimidin-5-ylmethyl)-2′,6′-diethoxy-biphenyl-3-carbonitrile] | 180 nM | 4 µg/mL (≈ 10.3 µM) | 4000 nM | 8 µg/mL (≈ 20.5 µM) | – | – | – | – | –
8 | CCOc1cc(Cc2cnc(N)nc2N)cc(OCC)c1-c1ccc(N(C)C)cc1 [Example 02-v, 5-(4′-Dimethylamino-2,6-diethoxy-biphenyl-4-ylmethyl)-pyrimidine-2,4-diamine] | 110 nM | 4 µg/mL (≈ 9.82 µM) | 10000 nM | 8 µg/mL (≈ 19.6 µM) | – | – | – | – | –
9 | CCOc1cc(Cc2cnc(N)nc2N)cc(OCC)c1-c1ccc(CN2CCOCC2)cc1 [Example 02-w, 5-(2,6-Diethoxy-4′-morpholine-4-ylmethyl-biphenyl-4-ylmethyl)-pyrimidine-2,4-diamine] | 280 nM | 4 µg/mL (≈ 8.63 µM) | 2200 nM | 8 µg/mL (≈ 17.3 µM) | – | – | – | – | –
10 | CCOc1cc(Cc2cnc(N)nc2N)cc(OCC)c1-c1ccc2c(c1)OCCO2 [Example 02-x, 5-[4-(2,3-Dihydro-benzo[1,4]dioxin-6-yl)-3,5-diethoxy-benzyl]-pyrimidine-2,4-diamine] | 75 nM | 2 µg/mL (≈ 4.73 µM) | 2330 nM | 8 µg/mL (≈ 18.9 µM) | – | – | – | – | –
11 | CCOc1cc(Cc2cnc(N)nc2N)cc(OCC)c1-c1cccc(N(C)C)c1 [Example 02-y, 5-(3′-Dimethylamino-2,6-diethoxy-biphenyl-4-ylmethyl)-pyrimidine-2,4-diamine] | 150 nM | 4 µg/mL (≈ 9.82 µM) | 800 nM | 8 µg/mL (≈ 19.6 µM) | – | – | – | – | –
12 | CCOc1cc(Cc2cnc(N)nc2N)cc(OCC)c1-c1cccc([N+](=O)[O-])c1 [Example 02-z, 5-(2,6-Diethoxy-3′-nitro-biphenyl-4-ylmethyl)-pyrimidine-2,4-diamine] | 60 nM | 8 µg/mL (≈ 19.5 µM) | 1600 nM | 8 µg/mL (≈ 19.5 µM) | – | – | – | – | –
13 | CCOc1cc(Cc2cnc(N)nc2N)cc(OCC)c1-c1cccc(N)c1 [Example 2a, 5-(3′-Amino-2,6-diethoxy-biphenyl-4-ylmethyl)-pyrimidine-2,4-diamine] | – | – | 750 nM | – | – | – | 30 nM | 4 µg/mL (≈ 10.5 µM) | 8 µg/mL (≈ 21.1 µM)

Reference: patent US6821980B1, “Substituted 5-benzyl-2,4-diaminopyrimidines” (Basilea Pharmaceutica AG, priority 1999, dated 2004)
